ChEMBL document CHEMBL1208702, “Use of 2-[(18)F]fluoroethylazide for the Staudinger ligation - Preparation and characterisation of GABA(A) receptor binding 4-quinolones” (Bioorg Med Chem Lett, 2010)

Test: Displacement of [3H]Ro151788 from GABA-A receptor in Wistar rat cerebellar membrane after 1 hr by liquid scintillation counting
Format: cell membranes, Cerebellum

Ki: 3.6 nM
SMILES: CCc1ccc2[nH]cc(C(=O)NCCF)c(=O)c2c1
